Data from PubChem BioAssay (NCI).
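Each compound was tested at five concentrations against cells in 96-well plates for 48 hours. The concentration for 50% growth inhibition is given as GI50. Definition used: TGI = concentration required for complete inhibition of growth.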

How the values were obtained:
Assay in all cases: growth of human tumour cells (NCI), 48 h
EKVX NSCLC = test system: EKVX NSCLC
SW-620 colon = test system: SW-620 colon
NCI-H522 lung = test system: NCI-H522 lung
BT-549 breast = test system: BT-549 breast
K-562 leukemia = test system: K-562 leukemia
SN12C renal = test system: SN12C renal
SF-539 CNS = test system: SF-539 CNS
MCF7 breast = test system: MCF7 breast
OVCAR-5 ovarian = test system: OVCAR-5 ovarian
HOP-92 NSCLC = test system: HOP-92 NSCLC

| SMILES | GI50 (EKVX NSCLC) | TGI (EKVX NSCLC) | GI50 (SW-620 colon) | TGI (SW-620 colon) | GI50 (NCI-H522 lung) | TGI (NCI-H522 lung) | GI50 (BT-549 breast) | TGI (BT-549 breast) | GI50 (K-562 leukemia) | TGI (K-562 leukemia) | GI50 (SN12C renal) | TGI (SN12C renal) | GI50 (SF-539 CNS) | TGI (SF-539 CNS) | GI50 (MCF7 breast) | TGI (MCF7 breast) | GI50 (OVCAR-5 ovarian) | TGI (OVCAR-5 ovarian) | GI50 (HOP-92 NSCLC) | TGI (HOP-92 NSCLC) |
| --- | --- | --- | --- | --- | --- | --- | --- | --- | --- | --- | --- | --- | --- | --- | --- | --- | --- | --- | --- | --- |
| CC(C)(C)CC(C)(C)c1ccc(OCCO)cc1 | 1.34 µg/mL | 30.1 µg/mL | 7.73 µg/mL | 18.6 µg/mL | 1.21 µg/mL | 11.1 µg/mL | 2.49 µg/mL | 11.9 µg/mL | 0.887 µg/mL | > 75 µg/mL | 6.38 µg/mL | 16.7 µg/mL | 8.77 µg/mL | 19.5 µg/mL | 4.01 µg/mL | 17 µg/mL | 11.9 µg/mL | 27.5 µg/mL | – | – |
| CC(C)=CC[C@@H]1CC2(CC=C(C)C)C(=O)C(OC3(C(=O)c4ccccc4)C(=O)C4(CC=C(C)C)C[C@@H](CC=C(C)C)C(C)(C)C(CC=C(C)C)(C4=O)C3=O)(C(=O)c3ccccc3)C(=O)C(CC=C(C)C)(C2=O)C1(C)C (stereo partly drawn) | 1.2 µM | 4.2 µM | 1.92 µM | 8.29 µM | 1.07 µM | 3.72 µM | 0.884 µM | 1.89 µM | 1.72 µM | 50 µM | 1.54 µM | 5.67 µM | 1.14 µM | 2.65 µM | 1.37 µM | 5.85 µM | 1.51 µM | 8.06 µM | 1.08 µM | 2.86 µM |
| Cn1ncnc1[C@@H]1c2n[nH]c(=O)c3cc(F)cc(c23)N[C@H]1c1ccc(F)cc1 | – | – | > 100 µM | > 100 µM | > 100 µM | > 100 µM | > 100 µM | > 100 µM | > 100 µM | > 100 µM | > 100 µM | > 100 µM | > 100 µM | > 100 µM | > 100 µM | > 100 µM | > 100 µM | > 100 µM | 92.6 µM | > 100 µM |
| COC(=O)N[C@H]1CCc2cc(OC)c(OC)c(OC)c2-c2ccc(SC)c(=O)cc21 | < 0.01 µM | > 100 µM | < 0.01 µM | > 100 µM | < 0.01 µM | > 19.9 µM | < 0.01 µM | 11 µM | < 0.01 µM | > 100 µM | < 0.01 µM | > 100 µM | < 0.01 µM | – | < 0.01 µM | > 100 µM | < 0.01 µM | > 100 µM | 0.0631 µM | > 64.8 µM |
| O=C(O)/C=C\C(=O)Nc1ccc2c(c1)-c1ccccc1C2 | – | > 100 µM | – | > 100 µM | – | > 100 µM | – | > 100 µM | – | > 100 µM | – | > 100 µM | – | – | – | > 100 µM | – | > 100 µM | – | > 100 µM |
| O=C1C=C(Nc2ccccc2)c2ccccc2C1=O | – | – | 2.1 µM | 5.33 µM | 1.67 µM | 3.36 µM | 1.73 µM | 3.16 µM | 2.64 µM | 7.81 µM | 1.62 µM | 3.11 µM | 1.81 µM | 3.47 µM | 1.88 µM | 4.3 µM | 1.85 µM | 3.33 µM | 2.73 µM | 13.2 µM |
| C=CCc1cccc(C=O)c1O | – | – | 50.6 µM | > 100 µM | > 100 µM | > 100 µM | 10.4 µM | > 100 µM | 32 µM | > 100 µM | 20.8 µM | > 100 µM | 30.1 µM | > 100 µM | 7.9 µM | > 100 µM | > 100 µM | > 100 µM | 0.809 µM | 59 µM |
| O=C1CSC(c2c[nH]c3ccccc23)N1c1cccc(Cl)c1 (stereo not drawn) | – | > 100 µM | – | > 100 µM | – | – | – | 96.6 µM | – | > 100 µM | – | > 100 µM | – | > 100 µM | – | > 100 µM | – | > 100 µM | – | > 100 µM |
| CN1C(=O)C(c2c[nH]c3ccccc23)=C(c2c[nH]c3ccccc23)C1=O | – | – | 5.78 µM | > 25 µM | 4.69 µM | 12.5 µM | 8.14 µM | 24.7 µM | 7.77 µM | > 25 µM | 7.75 µM | > 25 µM | 6.87 µM | > 25 µM | 5.24 µM | > 24.1 µM | 9.88 µM | > 25 µM | 3.08 µM | 13.3 µM |
| CCOC(=O)c1noc2c1CCc1c-2cn(Cc2ccc(OC)cc2)c1-c1cc(OC)c(OC)c(OC)c1 | 3.92 µM | > 100 µM | 0.497 µM | > 100 µM | 0.369 µM | > 100 µM | 1.47 µM | 35.1 µM | – | – | 3.92 µM | > 100 µM | 1.84 µM | 6.56 µM | 0.348 µM | > 100 µM | 4.72 µM | > 100 µM | 2.72 µM | > 100 µM |
| COc1ccc(-c2nc3sc(-c4cc(OC)c(OC)c(OC)c4)nn3c2/C=C2/C(=O)Nc3ccc(F)cc32)cc1 | – | – | 3.22 µM | 14.8 µM | 5.44 µM | 18 µM | 14.9 µM | 74.6 µM | 13.1 µM | > 100 µM | 14.2 µM | 40.1 µM | 56 µM | > 100 µM | 1.66 µM | 6.32 µM | 6.14 µM | 21.7 µM | 2.02 µM | 9.48 µM |
| Cn1cc(C2NC(=O)c3ccccc3N2)c2ccccc21 (stereo not drawn) | – | > 44.1 µM | – | > 100 µM | – | 2.56 µM | – | > 100 µM | – | – | – | > 100 µM | – | 6.87 µM | – | 5.1 µM | – | > 100 µM | – | > 100 µM |
| O=C1NN2CC(c3ccccc3)=NN=C2c2ccccc21 | 31.3 µM | > 100 µM | 33 µM | > 100 µM | 34.7 µM | 77.1 µM | 24.5 µM | 57 µM | 28.2 µM | > 100 µM | 29.1 µM | 78.3 µM | 25.8 µM | 56.8 µM | 15.8 µM | 37.2 µM | 37.9 µM | > 100 µM | – | – |
| O=C(O)c1ccc(N(/C=C/C(=O)C(F)(F)F)Cc2ccc(Cl)cc2)cc1 | 19.6 µM | 47.9 µM | 35.9 µM | > 100 µM | 19.9 µM | 61.9 µM | 38.7 µM | 67 µM | – | – | 32.3 µM | > 100 µM | 19 µM | 42.1 µM | > 100 µM | > 100 µM | 44.6 µM | > 100 µM | 19.5 µM | 82.4 µM |
